This test deals with PARP7 (Homo sapiens (Human), UniProt Q7Z3E1). Nature of the test: Enzymatic assay for inhibition of PARP7: TR-FRET displacement of biotinylated Probe A from the TIPARP active site. Type of test: binding. As to conditions: Table A-1. In a few lines: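 Read-out: 665/615 nm emission ratio (ex 320 nm, 90 μs delay) indexing bound TIPARP–Probe A. Final incubation 30 min, 25° C; compounds in dose response. Curve fit of % inhibition vs concentration; Hill slope floating or fixed at 1 (3-parameter).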
Sequence of PARP7 (Q7Z3E1 whole entry): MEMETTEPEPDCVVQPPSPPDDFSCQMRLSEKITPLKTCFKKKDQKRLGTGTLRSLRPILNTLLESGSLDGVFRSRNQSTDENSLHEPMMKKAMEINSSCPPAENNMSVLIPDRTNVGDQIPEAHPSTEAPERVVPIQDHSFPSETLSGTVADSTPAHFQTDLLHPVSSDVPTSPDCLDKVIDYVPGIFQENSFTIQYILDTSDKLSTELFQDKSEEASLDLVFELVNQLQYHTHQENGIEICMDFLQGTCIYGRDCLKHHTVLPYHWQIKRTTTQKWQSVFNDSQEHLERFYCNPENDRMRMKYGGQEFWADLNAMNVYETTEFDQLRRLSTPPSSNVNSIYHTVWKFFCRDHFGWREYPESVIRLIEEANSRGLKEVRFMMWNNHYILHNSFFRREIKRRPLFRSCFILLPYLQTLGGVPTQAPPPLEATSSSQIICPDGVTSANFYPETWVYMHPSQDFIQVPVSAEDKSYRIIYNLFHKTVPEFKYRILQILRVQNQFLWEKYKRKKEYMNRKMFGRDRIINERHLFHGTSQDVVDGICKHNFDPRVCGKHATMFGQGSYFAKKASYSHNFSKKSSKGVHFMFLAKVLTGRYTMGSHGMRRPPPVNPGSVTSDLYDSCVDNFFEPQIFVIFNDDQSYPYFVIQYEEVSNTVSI
(In general: TR-FRET usually uses a lanthanide donor and a delayed reading to cut background.)

With `CN1CCN(c2cccc3c2CN(c2cn[nH]c(=O)c2C(F)(F)F)C3)CC1` [Example 314, 5-(4-(4-Methylpiperazin-1-yl)isoindolin-2-yl)-4-(trifluoromethyl)pyridazin-3(2H)-one], the concentration for half-maximal inhibition (IC50) (usually the concentration at which inhibition is half-maximal) was in the range of 0.1 to 1 µM.
Consider `COc1cc2c(cc1F)CN(c1cn[nH]c(=O)c1C(F)(F)F)C2C` (centres unmarked) [Example 315, 5-(5-Fluoro-6-methoxy-1-methylisoindolin-2-yl)-4-(trifluoromethyl)pyridazin-3(2H)-one], for which the IC50 lay within 0.1 to 1 µM.
As for `O=c1[nH]ncc(N2Cc3ccc(OCCN4CCOCC4)nc3C2)c1C(F)(F)F` [Example 316, 5-(2-(2-Morpholinoethoxy)-5,7-dihydro-6H-pyrrolo[3,4-b]pyridin-6-yl)-4-(trifluoromethyl)pyridazin-3(2H)-one], the figure is 0.1 to 1 µM.
In the case of `NCCOc1ccc2c(n1)CN(c1cn[nH]c(=O)c1C(F)(F)F)C2` [Example 317, 5-(2-(2-Aminoethoxy)-5,7-dihydro-6H-pyrrolo[3,4-b]pyridin-6-yl)-4-(trifluoromethyl)pyridazin-3(2H)-one formic acid], the IC50 was in the range of 0.1 to 1 µM.
As to `CNCCOc1ccc2c(n1)CN(c1cn[nH]c(=O)c1C(F)(F)F)C2` [Example 318, 5-(2-(2-(Methylamino)ethoxy)-5,7-dihydro-6H-pyrrolo[3,4-b]pyridin-6-yl)-4-(trifluoromethyl)pyridazin-3(2H)-one], the IC50 lay within 0.1 to 1 µM.
The figure for `CN(C)CCOc1ccc2c(n1)CN(c1cn[nH]c(=O)c1C(F)(F)F)C2` [Example 319, 5-(2-(2-(Dimethylamino)ethoxy)-5,7-dihydro-6H-pyrrolo[3,4-b]pyridin-6-yl)-4-(trifluoromethyl)pyridazin-3(2H)-one] is 0.1 to 1 µM; for `Cc1ccc2c(n1)CN(c1cn[nH]c(=O)c1C(F)(F)F)C2` [Example 320, 5-(2-Methyl-5,7-dihydro-6H-pyrrolo[3,4-b]pyridin-6-yl)-4-(trifluoromethyl)pyridazin-3(2H)-one] it is less than 0.1 µM.
As for `O=c1[nH]ncc(N2Cc3ccc(OCc4ccncc4)nc3C2)c1C(F)(F)F` [Example 321, 5-(2-(Pyridin-4-ylmethoxy)-5,7-dihydro-6H-pyrrolo[3,4-b]pyridin-6-yl)-4-(trifluoromethyl)pyridazin-3(2H)-one], the figure is less than 0.1 µM; as for `NCc1ccc2c(c1)CN(c1cn[nH]c(=O)c1C(F)(F)F)C2` [Example 322, 5-(5-(Aminomethyl)isoindolin-2-yl)-4-(trifluoromethyl)pyridazin-3(2H)-one], 0.1 to 1 µM; as for `O=c1[nH]ncc(N2Cc3cc(OCCO)cc(F)c3C2)c1C(F)(F)F` [Example 323, 5-(4-Fluoro-6-(2-hydroxyethoxy)isoindolin-2-yl)-4-(trifluoromethyl)pyridazin-3(2H)-one], less than 0.1 µM.
The figure for `O=c1[nH]ncc(N2Cc3ccc(OC4CCNCC4)nc3C2)c1C(F)(F)F` [Example 324, 5-(2-(Piperidin-4-yloxy)-5,7-dihydro-6H-pyrrolo[3,4-b]pyridin-6-yl)-4-(trifluoromethyl)pyridazin-3(2H)-one] is 0.1 to 1 µM; for `O=c1[nH]ncc(N2Cc3cc(OCCN4CCOCC4)cnc3C2)c1C(F)(F)F` [Example 325, 5-(3-(2-Morpholinoethoxy)-5,7-dihydro-6H-pyrrolo[3,4-b]pyridin-6-yl)-4-(trifluoromethyl)pyridazin-3(2H)-one] it is 0.1 to 1 µM.
For the compound `COc1cnc2c(c1)CN(c1cn[nH]c(=O)c1C(F)(F)F)C2` [Example 326, 5-(3-Methoxy-5,7-dihydro-6H-pyrrolo[3,4-b]pyridin-6-yl)-4-(trifluoromethyl)pyridazin-3(2H)-one], the IC50 was less than 0.1 µM.
As for `NCc1cc2c(cc1F)CN(c1cn[nH]c(=O)c1C(F)(F)F)C2` [Example 327, 5-(5-(Aminomethyl)-6-fluoroisoindolin-2-yl)-4-(trifluoromethyl)pyridazin-3(2H)-one], the figure is 0.1 to 1 µM.
Regarding `CN(Cc1ccncc1)Cc1cccc2c1CN(c1cn[nH]c(=O)c1C(F)(F)F)C2` [Example 328, 5-(4-((Methyl(pyridin-4-ylmethyl)amino)methyl)isoindolin-2-yl)-4-(trifluoromethyl)pyridazin-3(2H)-one], the IC50 was less than 0.1 µM.
Turning to `O=c1[nH]ncc(N2Cc3cccc(CNCc4ccncc4)c3C2)c1C(F)(F)F` [Example 329, 5-(4-(((Pyridin-4-ylmethyl)amino)methyl)isoindolin-2-yl)-4-(trifluoromethyl)pyridazin-3(2H)-one], the IC50 is less than 0.1 µM.
With `N#CCC1c2ccccc2CN1c1cn[nH]c(=O)c1C(F)(F)F` (centres unmarked) [Example 330, 2-(2-(6-Oxo-5-(trifluoromethyl)-1,6-dihydropyridazin-4-yl)isoindolin-1-yl)acetonitrile], the IC50 is no less than 1 µM.
The figure for `CN(C)CCOc1cc(F)c2c(c1)CN(c1cn[nH]c(=O)c1C(F)(F)F)C2` [Example 331, 5-(6-(2-(Dimethylamino)ethoxy)-4-fluoroisoindolin-2-yl)-4-(trifluoromethyl)pyridazin-3(2H)-one] is less than 0.1 µM.
The figure for `COc1ccc2c(c1)C(C)N(c1cn[nH]c(=O)c1C(F)(F)F)C2` (centres unmarked) [Example 332, 5-(6-Methoxy-1-methylisoindolin-2-yl)-4-(trifluoromethyl)pyridazin-3(2H)-one] is 0.1 to 1 µM; for `CC(=O)N1CCC(Oc2ccc3c(n2)CN(c2cn[nH]c(=O)c2C(F)(F)F)C3)CC1` [Example 333, 5-(2-((1-Acetylpiperidin-4-yl)oxy)-5,7-dihydro-6H-pyrrolo[3,4-b]pyridin-6-yl)-4-(trifluoromethyl)pyridazin-3(2H)-one] it is less than 0.1 µM; for `NCCOc1cnc2c(c1)CN(c1cn[nH]c(=O)c1C(F)(F)F)C2` [Example 334, 5-(3-(2-Aminoethoxy)-5,7-dihydro-6H-pyrrolo[3,4-b]pyridin-6-yl)-4-(trifluoromethyl)pyridazin-3(2H)-one] it is 0.1 to 1 µM.
`CN(C)CCOc1cnc2c(c1)CN(c1cn[nH]c(=O)c1C(F)(F)F)C2` [Example 335, 5-(3-(2-(Dimethylamino)ethoxy)-5,7-dihydro-6H-pyrrolo[3,4-b]pyridin-6-yl)-4-(trifluoromethyl)pyridazin-3(2H)-one] came in with an IC50 of 0.1 to 1 µM.
For the compound `O=c1[nH]ncc(N2Cc3cc(OCc4cccnc4)cnc3C2)c1C(F)(F)F` [Example 336, 5-(3-(Pyridin-3-ylmethoxy)-5,7-dihydro-6H-pyrrolo[3,4-b]pyridin-6-yl)-4-(trifluoromethyl)pyridazin-3(2H)-one], the IC50 was less than 0.1 µM.
The compound `COc1ccnc2c1CN(c1cn[nH]c(=O)c1C(F)(F)F)C2` [Example 337, 5-(4-Methoxy-5,7-dihydro-6H-pyrrolo[3,4-b]pyridin-6-yl)-4-(trifluoromethyl)pyridazin-3(2H)-one] came in with an IC50 of less than 0.1 µM.
The compound `CC(=O)N1CCC(Oc2ccnc3c2CN(c2cn[nH]c(=O)c2C(F)(F)F)C3)CC1` [Example 338, 5-(4-((1-Acetylpiperidin-4-yl)oxy)-5,7-dihydro-6H-pyrrolo[3,4-b]pyridin-6-yl)-4-(trifluoromethyl)pyridazin-3(2H)-one] came in with an IC50 of less than 0.1 µM.
As for `O=c1[nH]ncc(N2Cc3cccc(CNc4ccncc4)c3C2)c1C(F)(F)F` [Example 339, 5-(4-((Pyridin-4-ylamino)methyl)isoindolin-2-yl)-4-(trifluoromethyl)pyridazin-3(2H)-one], the figure is less than 0.1 µM.

These data come from US10550105B2 (Ribon Therapeutics Inc., priority 2018, dated 2020).
